Assay results: publication PMC10041525, “New Dual Inhibitors of Bacterial Topoisomerases with Broad-Spectrum Antibacterial Activity and In Vivo Efficacy against Vancomycin-Intermediate Staphylococcus aureus” (Journal of Medicinal Chemistry, 2023)
≈ marks a conversion by molar mass, not a printed value. Where two headings read alike, the source gives them in different places.

Legend:
[1] = system: 100 A. baumannii strains (50 MDR, 50 non-MDR); assay: MIC broth microdilution at IHMA Europe, panel of 100 strains; assay type: cell-based; settings: for MIC / MIC50 / MIC90: Acinetobacter baumannii; for MIC50: read-out: MIC 50; for MIC90: read-out: MIC 90
P. aeruginosa ATCC 27853 = assay: IHMA QC MIC; assay type: cell-based

MIC ([1]; A. baumannii IHMA 2155340, Kenya 2020, MDR, read-out: MIC): 4 µg/mL (≈ 6.83 µM)
MIC ([1]; A. baumannii IHMA 2156634, Turkey 2020, MDR, read-out: MIC): 4 µg/mL (≈ 6.83 µM)
MIC ([1]; A. baumannii IHMA 2156709, Turkey 2020, MDR, read-out: MIC): 4 µg/mL (≈ 6.83 µM)
MIC ([1]; A. baumannii IHMA 2157614, Australia 2020, Non-MDR, read-out: MIC): 0.25 µg/mL (≈ 0.427 µM)
MIC ([1]; A. baumannii IHMA 2177232, Lithuania 2020, MDR, read-out: MIC): 8 µg/mL (≈ 13.7 µM)
MIC ([1]; A. baumannii IHMA 2177489, Lithuania 2020, MDR, read-out: MIC): 4 µg/mL (≈ 6.83 µM)
MIC ([1]; A. baumannii IHMA 2178574, Ukraine 2020, Non-MDR, read-out: MIC): 0.25 µg/mL (≈ 0.427 µM)
MIC ([1]; A. baumannii IHMA 2180134, Malaysia 2020, Non-MDR, read-out: MIC): 0.25 µg/mL (≈ 0.427 µM)
MIC ([1]; A. baumannii IHMA 2180142, Malaysia 2020, MDR, read-out: MIC): 2 µg/mL (≈ 3.41 µM)
MIC ([1]; A. baumannii IHMA 2181370, Morocco 2020, MDR, read-out: MIC): 1 µg/mL (≈ 1.71 µM)
MIC ([1]; A. baumannii IHMA 2183729, Argentina 2020, MDR, read-out: MIC): 1 µg/mL (≈ 1.71 µM)
MIC ([1]; A. baumannii IHMA 2183849, Argentina 2020, Non-MDR, read-out: MIC): 0.25 µg/mL (≈ 0.427 µM)
MIC ([1]; A. baumannii IHMA 2184382, Japan 2020, Non-MDR, read-out: MIC): 0.12 µg/mL (≈ 0.205 µM)
MIC ([1]; A. baumannii IHMA 2193375, Venezuela 2020, MDR, read-out: MIC): 1 µg/mL (≈ 1.71 µM)
MIC ([1]; A. baumannii IHMA 2193485, Venezuela 2020, Non-MDR, read-out: MIC): 0.12 µg/mL (≈ 0.205 µM)
MIC ([1]; A. baumannii IHMA 2193607, Venezuela 2020, MDR, read-out: MIC): 0.5 µg/mL (≈ 0.854 µM)
MIC ([1]; A. baumannii IHMA 2195460, Italy 2020, MDR, read-out: MIC): 1 µg/mL (≈ 1.71 µM)
MIC ([1]; A. baumannii IHMA 2196914, South Africa 2020, MDR, read-out: MIC): 4 µg/mL (≈ 6.83 µM)
MIC ([1]; A. baumannii IHMA 2196959, South Africa 2020, MDR, read-out: MIC): 2 µg/mL (≈ 3.41 µM)
MIC ([1]; A. baumannii IHMA 2203763, Spain 2020, MDR, read-out: MIC): 2 µg/mL (≈ 3.41 µM)
MIC ([1]; A. baumannii IHMA 2205144, Korea, South 2020, MDR, read-out: MIC): 2 µg/mL (≈ 3.41 µM)
MIC ([1]; A. baumannii IHMA 2206459, Taiwan 2020, MDR, read-out: MIC): 2 µg/mL (≈ 3.41 µM)
MIC ([1]; A. baumannii IHMA 2206507, Taiwan 2020, Non-MDR, read-out: MIC): 0.12 µg/mL (≈ 0.205 µM)
MIC ([1]; A. baumannii IHMA 2212575, Hungary 2020, Non-MDR, read-out: MIC): 0.5 µg/mL (≈ 0.854 µM)
MIC ([1]; A. baumannii IHMA 2215307, Hong Kong 2020, Non-MDR, read-out: MIC): 0.25 µg/mL (≈ 0.427 µM)
MIC ([1]; A. baumannii IHMA 2216586, Taiwan 2020, MDR, read-out: MIC): 2 µg/mL (≈ 3.41 µM)
MIC ([1]; A. baumannii IHMA 2223200, Colombia 2020, Non-MDR, read-out: MIC): 0.25 µg/mL (≈ 0.427 µM)
MIC ([1]; A. baumannii IHMA 2224017, Panama 2020, MDR, read-out: MIC): 2 µg/mL (≈ 3.41 µM)
MIC ([1]; A. baumannii IHMA 2224303, Panama 2020, Non-MDR, read-out: MIC): 0.5 µg/mL (≈ 0.854 µM)
MIC ([1]; A. baumannii IHMA 2231797, Greece 2020, MDR, read-out: MIC): 4 µg/mL (≈ 6.83 µM)
MIC ([1]; A. baumannii IHMA 2233099, Guatemala 2020, MDR, read-out: MIC): 2 µg/mL (≈ 3.41 µM)
MIC ([1]; A. baumannii IHMA 2233430, Kazakhstan 2020, MDR, read-out: MIC): 4 µg/mL (≈ 6.83 µM)
MIC ([1]; A. baumannii IHMA 2233548, Kazakhstan 2020, Non-MDR, read-out: MIC): 0.12 µg/mL (≈ 0.205 µM)
MIC ([1]; A. baumannii IHMA 2238964, Thailand 2020, MDR, read-out: MIC): 1 µg/mL (≈ 1.71 µM)
MIC ([1]; A. baumannii IHMA 2239052, Thailand 2020, Non-MDR, read-out: MIC): 0.12 µg/mL (≈ 0.205 µM)
MIC ([1]; A. baumannii IHMA 2261047, Belgium 2020, MDR, read-out: MIC): 1 µg/mL (≈ 1.71 µM)
MIC ([1]; A. baumannii IHMA 2261633, Canada 2020, Non-MDR, read-out: MIC): 0.25 µg/mL (≈ 0.427 µM)
MIC ([1]; A. baumannii IHMA 2274234, South Africa 2020, MDR, read-out: MIC): 2 µg/mL (≈ 3.41 µM)
MIC ([1]; A. baumannii IHMA 2274364, South Africa 2020, MDR, read-out: MIC): 4 µg/mL (≈ 6.83 µM)
MIC ([1]; A. baumannii IHMA 2275237, Chile 2020, Non-MDR, read-out: MIC): 0.12 µg/mL (≈ 0.205 µM)
MIC ([1]; A. baumannii IHMA 2275751, Jordan 2020, MDR, read-out: MIC): 2 µg/mL (≈ 3.41 µM)
MIC ([1]; A. baumannii IHMA 2316205, United States 2020, MDR, read-out: MIC): 4 µg/mL (≈ 6.83 µM)
MIC ([1]; MDR n = 50, read-out: MAX (maximum MIC; all strains inhibited)): 8 µg/mL (≈ 13.7 µM)
MIC50 ([1]; MDR n = 50): 2 µg/mL (≈ 3.41 µM)
MIC90 ([1]; MDR n = 50): 4 µg/mL (≈ 6.83 µM)
MIC ([1]; MDR n = 50, read-out: MIN (minimum MIC)): 0.5 µg/mL (≈ 0.854 µM)
MIC ([1]; all isolates n = 100, read-out: MAX (maximum MIC; all strains inhibited)): 8 µg/mL (≈ 13.7 µM)
MIC50 ([1]; all isolates n = 100): 0.5 µg/mL (≈ 0.854 µM)
MIC90 ([1]; all isolates n = 100): 4 µg/mL (≈ 6.83 µM)
MIC ([1]; all isolates n = 100, read-out: MIN (minimum MIC)): 0.06 µg/mL (≈ 0.102 µM)
MIC ([1]; non-MDR n = 50, read-out: MAX (maximum MIC)): 4 µg/mL (≈ 6.83 µM)
MIC50 ([1]; non-MDR n = 50): 0.25 µg/mL (≈ 0.427 µM)
MIC90 ([1]; non-MDR n = 50): 0.5 µg/mL (≈ 0.854 µM)
MIC ([1]; non-MDR n = 50, read-out: MIN (minimum MIC)): 0.06 µg/mL (≈ 0.102 µM)
MAX (maximum MIC; all strains inhibited) ([1]; MDR n = 50): 8 µg/mL
MAX (maximum MIC; all strains inhibited) ([1]; all isolates n = 100): 8 µg/mL
MIC (QC, repeated tests) (P. aeruginosa ATCC 27853): 4 µg/mL (≈ 6.83 µM)
MIC (P. aeruginosa ATCC 27853; Pseudomonas aeruginosa, ATCC27853, read-out: MIC (QC, repeated tests)): 8 µg/mL (≈ 13.7 µM)
SMILES: CN(C)c1cc(NC(=O)CNC(C)(C)C)c(O)c2c1C[C@H]1C[C@H]3[C@H](N(C)C)C(O)=C(C(N)=O)C(=O)[C@@]3(O)C(O)=C1C2=O [Tigecycline, tigecycline]
